Results published in patent US9809865B2, “Anti-microbial agent from Paenibacillus sp. and methods and uses thereof” (Best Environmental Technologies, Inc., priority 2009, dated 2017).

Experiments:
[1] = tested on: Escherichia coli RR1; test: Sensitivity to enzymes, detergents or urea, residual activity by agar diffusion test; assay type: physicochemical; details: polymyxin B 0.1 μg ml^−1
Protocol: The sensitivities of the antimicrobial agent to proteases (all from Sigma-Aldrich, Oakville, ON) or other agents was tested by treating P. polymyxa JB05-01-1 culture supernatant with 2 mg ml^−1 final concentration of proteinase K (Tritirachium album), α-chymotrypsin (bovine pancreas), lipase (Sigma-Aldrich, Oakville, ON), trypsin (porcine pancreas), urea (Sigma-Aldrich, St. Louis Mo.), sodium dodecyl sulfate (SDS) (Sigma-Aldrich, St. Louis Mo.) for 1 h at 37° C. (Motta et al. 2007). Thermal stability of the antimicrobial activity was determined by holding aliquots (1000 μl) of 20 h culture supernatant at temperatures ranging from 50° C. to 90° C. for 30 min or at 100° C. for 10 min. The effect of pH was determined by adjusting the pH of P. polymyxa JB05-01-1 culture supernatant from 2 to 9 using 5 M HCl or NaOH. The activity of each sample was compared with the activity of untreated P. polymyxa JB05-01 culture supernatant at pH 6.8.
The effect of several organic solvents was evaluated by stirring 20 h culture supernatant for 2 h with 10% (v/v) acetonitrile, hexane, propanol, ethanol, toluene, acetone, butanol or methanol (all solvents were obtained from Sigma-Aldrich, St. Louis Mo.). Residual antimicrobial activities were tested using the agar diffusion assay against E. coli RR1 as described herein, with controls for effects of residual solvent.

[2] = tested on: Escherichia coli LRC SA1650; test: Agar well diffusion method; assay type: cell-based; details: medium TSB; polymyxin B at 0.1 μg ml^−1
Protocol: (§1) The qualitative antimicrobial spectrum of P. polymyxa culture supernatant was determined using the agar well diffusion method (Wolf and Gibbons 1996). Briefly, a 25-ml volume of molten tryptic soy agar (0.75% agar w/v) was cooled to 47° C. and seeded with 1% (v/v) overnight TSB culture of an indicator strain. The seeded agar was then poured into a sterile Petri plate and allowed to solidify at room temperature. Wells (7 mm) were cut in the solidified agar using a sterile metal cork borer and filled with 80 μl of supernatant. The plates were left at 5° C. for 2 h to allow diffusion of the tested aliquot and then incubated aerobically for 18 h at 30° C. Absence or presence of inhibition zones as well as their diameters were recorded.

[3] = tested on: Pseudomonas fluorescens LRC R73; test: Agar well diffusion method; assay type: cell-based; details: medium TSB; polymyxin B at 0.1 μg ml^−1
Protocol: as §1

[4] = tested on: Escherichia coli LRC RR1; test: Agar well diffusion method; assay type: cell-based; details: medium TSB; polymyxin B at 0.1 μg ml^−1
Protocol: as §1

[5] = tested on: Pantoea agglomerans LRC BC1; test: Agar well diffusion method; assay type: cell-based; details: medium TSB; polymyxin B at 0.1 μg ml^−1
Protocol: as §1

[6] = tested on: Escherichia coli LRC TB1; test: Agar well diffusion method; assay type: cell-based; details: medium TSB; polymyxin B at 0.1 μg ml^−1
Protocol: as §1

[7] = tested on: Fibrobacter succinogenes ATCC 19169; test: Agar well diffusion method; assay type: cell-based; details: medium L-10; polymyxin B at 0.1 μg ml^−1
Protocol: as §1, with “Briefly, a 25-ml volume of molten tryptic soy agar (0.75% agar w/v) was cooled to 47° C. and seeded with 1% (v/v) overnight TSB culture of an indicator strain.” left out

[8] = tested on: Butyrivibrio fibrisolvens LRC OR85; test: Agar well diffusion method; assay type: cell-based; details: medium L-10; polymyxin B at 0.1 μg ml^−1
Protocol: as §1, with “Briefly, a 25-ml volume of molten tryptic soy agar (0.75% agar w/v) was cooled to 47° C. and seeded with 1% (v/v) overnight TSB culture of an indicator strain.” left out

[9] = tested on: Pediococcus acidilactici ATCC 25740; test: Agar well diffusion method; assay type: cell-based; set-up: key: No inhibition at concentrations up of 0.1 μgml−1.; +: Diameter of the inhibition zone 10 ± 2 mm; ++: Diameter of the inhibition zone 16 ± 2 mm; +++: Diameter of the inhibition zone 28 ± 2 mm; details: medium MRS; polymyxin B at 0.1 μg ml^−1
Protocol: as §1, with “Briefly, a 25-ml volume of molten tryptic soy agar (0.75% agar w/v) was cooled to 47° C. and seeded with 1% (v/v) overnight TSB culture of an indicator strain.” left out

[10] = tested on: Bacillus lecheniformis LRC 8422; test: Agar well diffusion method; assay type: cell-based; set-up: key: No inhibition at concentrations up of 0.1 μgml−1.; +: Diameter of the inhibition zone 10 ± 2 mm; ++: Diameter of the inhibition zone 16 ± 2 mm; +++: Diameter of the inhibition zone 28 ± 2 mm; details: medium LB; polymyxin B at 0.1 μg ml^−1
Protocol: as §1, with “Briefly, a 25-ml volume of molten tryptic soy agar (0.75% agar w/v) was cooled to 47° C. and seeded with 1% (v/v) overnight TSB culture of an indicator strain.” left out

[11] = tested on: Bacillus circulans LRC 9E2; test: Agar well diffusion method; assay type: cell-based; set-up: key: No inhibition at concentrations up of 0.1 μgml−1.; +: Diameter of the inhibition zone 10 ± 2 mm; ++: Diameter of the inhibition zone 16 ± 2 mm; +++: Diameter of the inhibition zone 28 ± 2 mm; details: medium LB; polymyxin B at 0.1 μg ml^−1
Protocol: as §1, with “Briefly, a 25-ml volume of molten tryptic soy agar (0.75% agar w/v) was cooled to 47° C. and seeded with 1% (v/v) overnight TSB culture of an indicator strain.” left out

[12] = tested on: Paenibacillus polymyxa ATCC 43865; test: Agar well diffusion method; assay type: cell-based; set-up: key: No inhibition at concentrations up of 0.1 μgml−1.; +: Diameter of the inhibition zone 10 ± 2 mm; ++: Diameter of the inhibition zone 16 ± 2 mm; +++: Diameter of the inhibition zone 28 ± 2 mm; details: medium LB; polymyxin B at 0.1 μg ml^−1
Protocol: as §1, with “Briefly, a 25-ml volume of molten tryptic soy agar (0.75% agar w/v) was cooled to 47° C. and seeded with 1% (v/v) overnight TSB culture of an indicator strain.” left out

[13] = tested on: Pediococcus pentosaceus ATCC 25745; test: Agar well diffusion method; assay type: cell-based; set-up: key: No inhibition at concentrations up of 0.1 μgml−1.; +: Diameter of the inhibition zone 10 ± 2 mm; ++: Diameter of the inhibition zone 16 ± 2 mm; +++: Diameter of the inhibition zone 28 ± 2 mm; details: medium LB; polymyxin B at 0.1 μg ml^−1
Protocol: as §1, with “Briefly, a 25-ml volume of molten tryptic soy agar (0.75% agar w/v) was cooled to 47° C. and seeded with 1% (v/v) overnight TSB culture of an indicator strain.” left out

[14] = tested on: Enterococcus mundtii LRC 8369; test: Agar well diffusion method; assay type: cell-based; set-up: key: No inhibition at concentrations up of 0.1 μgml−1.; +: Diameter of the inhibition zone 10 ± 2 mm; ++: Diameter of the inhibition zone 16 ± 2 mm; +++: Diameter of the inhibition zone 28 ± 2 mm; details: medium LB; polymyxin B at 0.1 μg ml^−1
Protocol: as §1, with “Briefly, a 25-ml volume of molten tryptic soy agar (0.75% agar w/v) was cooled to 47° C. and seeded with 1% (v/v) overnight TSB culture of an indicator strain.” left out

[15] = tested on: Streptococcus bovis ATCC 33317; test: Agar well diffusion method; assay type: cell-based; set-up: key: No inhibition at concentrations up of 0.1 μgml−1.; +: Diameter of the inhibition zone 10 ± 2 mm; ++: Diameter of the inhibition zone 16 ± 2 mm; +++: Diameter of the inhibition zone 28 ± 2 mm; details: medium LB; polymyxin B at 0.1 μg ml^−1
Protocol: as §1, with “Briefly, a 25-ml volume of molten tryptic soy agar (0.75% agar w/v) was cooled to 47° C. and seeded with 1% (v/v) overnight TSB culture of an indicator strain.” left out

[16] = tested on: Lactococcus lactis ATCC 7962; test: Agar well diffusion method; assay type: cell-based; set-up: key: No inhibition at concentrations up of 0.1 μgml−1.; +: Diameter of the inhibition zone 10 ± 2 mm; ++: Diameter of the inhibition zone 16 ± 2 mm; +++: Diameter of the inhibition zone 28 ± 2 mm; details: medium MRS; polymyxin B at 0.1 μg ml^−1
Protocol: as §1, with “Briefly, a 25-ml volume of molten tryptic soy agar (0.75% agar w/v) was cooled to 47° C. and seeded with 1% (v/v) overnight TSB culture of an indicator strain.” left out

[17] = tested on: E. coli RR1; test: Effect of culture supernatant on exponentially growing E. coli RR1 (viable counts, OD600); assay type: cell-based, Escherichia coli; details: viability of E. coli RR1 cells; OD600nm constant
Protocol: To determine the effect of P. polymyxa JB05-01-1 culture supernatant, E. coli RR1 cells were cultivated in the presence of concentrated P. polymyxa culture supernatant containing JB05-01-1 at final total activity of 0, 32, and 96 AU/ml. The OD600nm of culture was determined every two hours using a multi-detection microplate reader (Bio-Teck instrument Inc, Winooski, Vt., USA). The corresponding final cell concentration expressed as CFU/ml was determined as described by Naghmouchi et al. (2008). The inhibitory activity (I.A.) of culture supernatant containing JB05-01-1 was calculated as a percentage, I.A.=100-100[OD600(x)/OD600(i)], where (x) is culture supernatant containing JB05-01-1 at the corresponded total activity and (i) is the control culture. Data was reported as means of duplicate analyses.

[18] = tested on: Paenibacillus polymyxa ATCC 7070; test: Agar well diffusion method; assay type: cell-based; set-up: key: No inhibition at concentrations up of 0.1 μgml−1.; +: Diameter of the inhibition zone 10 ± 2 mm; ++: Diameter of the inhibition zone 16 ± 2 mm; +++: Diameter of the inhibition zone 28 ± 2 mm; details: medium LB; polymyxin B at 0.1 μg ml^−1
Protocol: as §1

[19] = tested on: Listeria innocua HPB 13; test: Agar well diffusion method; assay type: cell-based; set-up: key: No inhibition at concentrations up of 0.1 μgml−1.; +: Diameter of the inhibition zone 10 ± 2 mm; ++: Diameter of the inhibition zone 16 ± 2 mm; +++: Diameter of the inhibition zone 28 ± 2 mm; details: medium TSB; polymyxin B at 0.1 μg ml^−1
Protocol: as §1

[20] = tested on: Listeria ivanovii HPB 28; test: Agar well diffusion method; assay type: cell-based; set-up: key: No inhibition at concentrations up of 0.1 μgml−1.; +: Diameter of the inhibition zone 10 ± 2 mm; ++: Diameter of the inhibition zone 16 ± 2 mm; +++: Diameter of the inhibition zone 28 ± 2 mm; details: medium TSB; polymyxin B at 0.1 μg ml^−1
Protocol: as §1

[21] = tested on: Paenibacillus polymyxa JB05-01-1; test: Agar well diffusion method; assay type: cell-based; set-up: key: No inhibition at concentrations up of 0.1 μgml−1.; +: Diameter of the inhibition zone 10 ± 2 mm; ++: Diameter of the inhibition zone 16 ± 2 mm; +++: Diameter of the inhibition zone 28 ± 2 mm; details: medium LB; polymyxin B at 0.1 μg ml^−1
Protocol: as §1

## Polymyxin B
[1]; Chymotrypsin 2 mg ml^−1, 1 h at 37° C.
  % of residual activity: 79.5%
[1]; Lipase 2 mg ml^−1, 1 h at 37° C.
  % of residual activity: 58.3%
[1]; Proteinase K 2 mg ml^−1, 1 h at 37° C.
  % of residual activity: 4.5%
[1]; SDS 2 mg ml^−1, 1 h at 37° C.
  % of residual activity: 70.1%
[1]; Trypsin 2 mg ml^−1, 1 h at 37° C.
  % of residual activity: 62.5%
[1]; Urea 2 mg ml^−1, 1 h at 37° C.
  % of residual activity: 62.5%
[2]
  Inhibition (inhibition zone): ++ (Diameter of the inhibition zone 16 ± 2 mm)
[3]
  Inhibition (inhibition zone): ++ (Diameter of the inhibition zone 16 ± 2 mm)
[4]
  Inhibition (inhibition zone): +++ (Diameter of the inhibition zone 28 ± 2 mm)
[5]
  Inhibition (inhibition zone): + (Diameter of the inhibition zone 10 ± 2 mm)
[6]
  Inhibition (inhibition zone): +++ (Diameter of the inhibition zone 28 ± 2 mm)
[7]
  Inhibition (inhibition zone): + (Diameter of the inhibition zone 10 ± 2 mm)
[8]
  Inhibition (inhibition zone): + (Diameter of the inhibition zone 10 ± 2 mm)
[9]
  Inhibition (inhibition zone): −
[10]
  Inhibition (inhibition zone): −
[11]
  Inhibition (inhibition zone): −
[12]
  Inhibition (inhibition zone): −
[13]
  Inhibition (inhibition zone): −
[14]
  Inhibition (inhibition zone): −
[15]
  Inhibition (inhibition zone): −
[16]
  Inhibition (inhibition zone): −
[17]
  Mode of action: bactericidal action
[18]
  Inhibition (inhibition zone): −
[19]
  Inhibition (inhibition zone): −
[20]
  Inhibition (inhibition zone): −
[21]
  Inhibition (inhibition zone): −
